Read-outs that look alike come from different tables or passages of the source. Each block holds one compound with its values, some of them ahead of it.
What was measured:
[1] = test system: IL-6 reactive STAT3 reporter gene; experiment: IL-6 reactive STAT3 reporter gene test (pSTAT3-TA-Luc6 luciferase) in HepG2 cells; type: cell-based; details: Homo sapiens
Experimental: A pSTAT3-TA-Luc6 construct, which comprises 8 more STAT3 DNA binding sequence copies as compared to pSTAT-3-TA-Luc and thus, enables to better reflect STAT3 reporter gene assay, was prepared. STAT3 DNA binding sequence was amplified using pSTAT3-TA-Luc plasmid (Clontech, Palo Alto, Calif.) as the template, and oligonucleotide ([…]. SEQ ID NO: 1 (containing Kpn I site)) and oligonucleotide ([…] GAAGCAACGTTC (containing Xho I site)) as forward primer and reverse primer, respectively, by means of a thermocycler. The amplified PCR product was cloned, separated, and then inserted into Kpn I/Xho I site of pSTAT3-TA-Luc plasmid.
Human hepatoma cell line, HepG2 cell, was incubated in MEM (Minimal Essential Medium, WelGENE Inc, Daegu, Korea) medium under water-saturated condition at 37° C., 5% CO2. To this medium was added 10% (v/v) fetal bovine serum, streptomycin (100 U/mL) and penicillin (100 U/mL). 6-Well cell culture plate was allowed to grow cells up to 80%, and then the specimen was pre-treated for one hour. Then, the medium was changed into 50 μL of serum-free medium, and the mixed solution of 0.1 μL pSTAT3-TA-Luc6 construct and 0.3 μL lipofectamin reagent was added to each well and then allowed to react for 3 hours to transfect cells with pSTAT3-TA-Luc6 construct. The medium was changed to a fresh medium, and the plate was incubated for 24 hours to transiently transfect cells. The transfected cells were serum-starved with 1% BSA/DMEM, and treated with the samples for one hour and then, after adding IL-6, incubated for 3 hours. The mixture was washed with PBS, shaken for one minute with addition of 50 μL of lysis buffer (promega luciferase assay system). After adding 30-100 μL of luciferase substrate (Promega luciferase assay system), the mixture was measured by a luminometer within 5 minutes.
Among others Compounds 1 and 3 as the materials having high inhibitory effect on IL-6 activity were used at various concentration to measure the degree of inhibitory effect, and the results thereof are as shown in FIGS. 2 and 3.

[2] = test system: IL-6 induced STAT3 phosphorylation; experiment: Test for inhibitory activity against STAT3 phosphorylation induced by IL-6 (Western blot, HepG2); type: cell-based, human; details: HepG2, 1, 3, 10, 30, 100 ug/ml, 10 ng/ml IL-6 (FIG. 4)
Experimental: HepG2 cells were divisionally inoculated in 6-well plate in the ratio of 5×10^4 cells/well, and grown to be 80% confluent. After changing to a serum-free medium and incubating for 6 hours, cells were pre-treated with the samples for one hour. […] Then the mixture was centrifuged (13,000×g, 15 minutes) to obtain a lysate as the supernatant. Herein, HepG2 cells not treated with IL-6 and the samples were used as the control group. The concentration of proteins was quantified by means of Bio-Rad DC protein assay kit, and the protein was loaded on 10% SDS-polyacrylamide gel (SDS-PAGE) and electrophoresed at 30 mA for 2 hours. After completion of the electrophoresis, the protein on gel was transcribed into PVDF membrane (Westran® S, pore size […]) at 90V for 90 minutes, and the transcribed membrane was blocked with Tris-buffered solution (T-TBS; 50 mM Tri-HCl, pH 7.6, 150 mM NaCl, 0.2% Tween-20, 5% skim milk) at 4° C. for 12 hours, and washed five time with T-TBS. The membrane was treated with polyclonal antibodies of phospho-STAT3 (1:1000 dilutions, respectively) as the primary antibody for 2 hours. After washing five times with T-TBS, the membrane was reacted with HRP-conjugated anti-rabbit antibody (1:5000 dilutions) as the secondary antibody for one hour. After washing with T-TBS, the film was developed in the dark room by means of ECL.

[3] = test system: IL-6 induced ERK phosphorylation; experiment: Test for inhibitory activity against ERK phosphorylation induced by IL-6 (Western blot, HepG2); type: cell-based, human; details: HepG2, 30 μg/ml (FIG. 5)
Experimental: HepG2 cell was divisionally inoculated in 6-well plate, and then starved for 18 hours.
The starved cells were treated with the samples for one hour, and then stimulated with IL-6 or LIF (Upstate Biotechnology, USA) for 10 minutes. The specimen was treated with 5× cell lysis buffer (Promega) sometimes with vortexing under ice for 30 minutes. The cell lysate obtained as described under B in Experiment 1 (3) was dissolved in 8% SDS-PAGE gel, and transferred to the nitrocellulose membrane. This membrane was blocked with Tris-buffered solution (50 mM Tris-HCl (pH 7.4), 150 mM NaCl, 0.1% Tween 20) containing 5% non-fat dry milk at 4° C. Then, it was incubated together with an appropriate primary antibody (ERK) present in Tris-buffered solution (50 mM Tris-HCl (pH 7.4), 150 mM NaCl, 0.1% Tween 20) containing 5% non-fat dry milk, at room temperature for 1-2 hours. This membrane was washed five times with TBS buffer solution for 10 minutes, and incubated with 1:6000 diluted horseradish peroxidase-conjugated secondary antibodies for one hour. The membrane was washed 10 times with TBS buffer solution, and then mixed and incubated with the 1:1 mixture of HRP Substrate Luminol Reagent and HRP Substrate Peroxide Solution as ELC reagent (Millipore Corp. Ma USA). The chemiluminescent signals were visualized with X-ray film.

[4] = test system: Respective cell lines; experiment: Cytotoxicity assay (MTT); type: cell-based; details: 48 hours
Experimental: In testing the compounds in cell lines, if cells are killed due to a toxicity of the compounds at the treatment concentration, a significant result cannot be obtained. Therefore, the toxicity assay was conducted by treatment with the compounds as follows. Respective cell lines were maintained on 96-well cell culture plate in the medium comprising 10% FBS with 1% Penicillin G/streptomycin, and then incubated under 37° C., 5% CO2 condition. All the experiments were repeated three times. The samples were properly diluted, and then cells were treated with the diluted samples at the concentrations of 1, 3, 10, 30, 100 μg/ml. After 48 hours, 10% (v/v) 5 mg/mL 3-(4,5-dimethylthiazol-2-yl)-2,5-diphenyltetrazolium bromide (MTT; Sigma) was added to the cell culture. After 3 hours of the incubation, the medium was aspirated and washed with PBS. After adding DMSO (100 μl), the mixture was gently agitated for 5 minutes. The absorbance was measured at 570 nm by means of VERSA max microplate reader (Molecular Devices Inc.), and the average absorbance (±SE) values as obtained from three experiments were compared with t-test, a statistical significance of P<0.05. When Compounds 1 and 3 were used at the concentrations of 1, 3, 10, 30, 100 μg/ml, the survival rates of cells were 94, 76, 70, 67, 30%, respectively, by the treatment with Compound 1, and 74, 71, 65, 57, 19%, respectively, by the treatment with Compound 3. It means that at least 50% of cells survive at the concentration (for example, 30 μg/ml) of the compounds of the present invention for measuring IL-6 inhibitory activity.

[5] = HepG2, 20 ug/ml of sample, HepG2 cells, read-out: Inhibition % of IL-6 reactive STAT3 reporter gene activity

Structure (SMILES): CCc1ccc(Nc2nc3cc(NC(=O)c4ccc(Cl)cc4)ccc3o2)cc1 [Compound 4, 4-chloro-N-(2-(4-ethylphenylamino)benzo[d]oxazol-5-yl)benzamide]
inhibition at 20 µg/mL [1, 5]: 12.1% | melting point: > 250 °C

Structure (SMILES): CCc1ccc(Nc2nc3cc(NC(=O)c4ccc([N+](=O)[O-])cc4Cl)ccc3o2)cc1 [Compound 5, 2-chloro-N-(2-(4-ethylphenylamino)benzo[d]oxazol-5-yl)-4-nitrobenzamide]
inhibition at 20 µg/mL [1, 5]: 20% | melting point: > 250 °C

Structure (SMILES): CCc1ccc(Nc2nc3cc(NC(=O)c4cc([N+](=O)[O-])ccc4Cl)ccc3o2)cc1 [Compound 6, 2-chloro-N-(2-(4-ethylphenylamino)benzo[d]oxazol-5-yl)-5-nitrobenzamide]
inhibition at 20 µg/mL [1, 5]: 65.6%

Structure (SMILES): CCc1ccc(Nc2nc3cc(NC(=O)c4ccc(Cl)c(Cl)c4)ccc3o2)cc1 [Compound 7, 3,4-dichloro-N-(2-(4-ethylphenylamino)-benzo[d]oxazol-5-yl)benzamide]
inhibition at 20 µg/mL [1, 5]: 69.3%

Structure (SMILES): CCc1ccc(Nc2nc3cc(NC(=O)c4cccc(CCl)c4)ccc3o2)cc1 [Compound 8, 3-(chloromethyl)-N-(2-(4-ethylphenyl-amino)benzo[d]oxazol-5-yl)benzamide]
inhibition at 20 µg/mL [1, 5]: > 80%

Structure (SMILES): CCc1ccc(Nc2nc3cc(NC(=O)c4cc(F)cc(C(F)(F)F)c4)ccc3o2)cc1 [Compound 10, N-(2-(4-ethylphenylamino)benzo[d]oxazol-5-yl)-3-fluoro-5-(trifluoromethyl)benzamide]
inhibition at 20 µg/mL [1, 5]: 50.2% | melting point: > 250 °C

Structure (SMILES): CCc1ccc(Nc2nc3cc(NC(=O)c4ccc(C(C)(C)C)cc4)ccc3o2)cc1 [Compound 12, 4-tert-butyl-N-(2-(4-ethylphenylamino)-benzo[d]oxazol-5-yl)benzamide]
inhibition at 20 µg/mL [1, 5]: > 80%

Structure (SMILES): CCc1ccc(Nc2nc3cc(NC(=O)c4ccc(OC)c(OC)c4)ccc3o2)cc1 [Compound 13, N-(2-(4-ethylphenylamino)benzo[d]oxazol-5-yl)-3,4-dimethoxybenzamide]
inhibition at 20 µg/mL [1, 5]: 26.2% | melting point: > 250 °C

Structure (SMILES): CCc1ccc(Nc2nc3cc(NC(=O)c4cc(OC)c(OC)c(OC)c4)ccc3o2)cc1 [Compound 14, N-(2-(4-ethylphenylamino)benzo[d]oxazol-5-yl)-3,4,5-trimethoxybenzamide]
inhibition at 20 µg/mL ([1]; HepG2, read-out: Inhibition % of IL-6 reactive STAT3 reporter gene activity, 20 ug/ml of sample, HepG2 cells): > 80% | melting point: > 250 °C

Structure (SMILES): CCc1ccc(Nc2nc3cc(NC(=O)c4ccccc4Nc4cccc(C(F)(F)F)c4)ccc3o2)cc1 [Compound 16, N-(2-(4-ethylphenylamino)benzo[d]oxazol-5-yl)-2-(3-(trifluoromethyl)phenylamino)benzamide]
inhibition at 20 µg/mL [1, 5]: > 80% | melting point: 174 to 176 °C

Now from value to compound, other results behind:

IC50 ([1]; HepG2 cells, various concentrations (FIGS. 2 and 3), read-out: IC50 of IL-6 inhibitory activity (STAT3 reporter gene)): 18.9 µM
Structure (SMILES): CCc1ccc(Nc2nc3cc(N)ccc3o2)cc1 [Compound 1, N^2-(4-ethylphenyl)benzo[d]oxazole-2,5-diamine]
inhibition at 20 µg/mL [1, 5]: 97% | Inhibitory activity on IL-6 induced STAT3 phosphorylation [2]: inhibited IL-6 expression in a concentration-dependent manner | Influence on IL-6 induced ERK phosphorylation [3]: did not influence on ERK phosphorylation | Survival rate of cells ([4]; 1 μg/ml): 94% | Survival rate of cells ([4]; 3 μg/ml): 76% | Survival rate of cells ([4]; 10 μg/ml): 70% | Survival rate of cells ([4]; 30 μg/ml): 67% | Survival rate of cells ([4]; 100 μg/ml): 30%

melting point: > 250 °C
Structure (SMILES): CCc1ccc(Nc2nc3cc(NC(=O)Cc4ccccc4)ccc3o2)cc1 [Compound 2, N-(2-(4-ethylphenylamino)benzo[d]oxazol-5-yl)-2-phenylacetamide]
inhibition at 20 µg/mL [1, 5]: 61.7%

melting point: > 250 °C
Structure (SMILES): CCc1ccc(Nc2nc3cc(NC(=O)c4ccc(CC)cc4)ccc3o2)cc1 [Compound 9, 4-ethyl-N-(2-(4-ethylphenylamino)benzo[d]oxazol-5-yl)benzamide]
inhibition at 20 µg/mL [1, 5]: 63.3%

melting point: 181.6 to 182 °C
Structure (SMILES): CCOc1ccccc1C(=O)Nc1ccc2oc(Nc3ccc(CC)cc3)nc2c1 [Compound 11, 2-ethoxy-N-(2-(4-ethylphenylamino)-benzo[d]oxazol-5-yl)benzamide]
inhibition at 20 µg/mL [1, 5]: 58%

melting point: 244.8 to 246 °C
Structure (SMILES): CCCCCCCc1ccc(C(=O)Nc2ccc3oc(Nc4ccc(CC)cc4)nc3c2)cc1 [Compound 15, N-(2-(4-ethylphenylamino)benzo[d]oxazol-5-yl)-4-heptylbenzamide]
inhibition at 20 µg/mL [1, 5]: 57.2%

Source: patent US8614240B2, “Benzoxazole derivatives having inhibitory activity against interleukin-6, preparation method thereof, and pharmaceutical composition containing the same” (EWHA University-Industry Collaboration Foundation, priority 2010, dated 2013)
